A short description of the data set: Yellowness index (ASTM D1925) of polypropylene plaques after multiple pass extrusion, biocide as neat powder or polyester concentrate (Example 2). The data set is classed as physicochemical. To be noted: polypropylene plaque. An excerpt: Polypropylene homopolymer (PRO-FAX® 6501, Montell Polyolefins, 100 parts), stabilized with 0.05 parts of neopentanetetrayl tetrakis(3,5-di-tert-butyl-4-hydroxyhydrocinnamate), 0.10 parts of tris(2,4-di-tert-butylohenyl) phosphite and 0.05 parts of calcium stearate is dry blended without a biocide; or with 0.25 parts or with 0.50 parts of 2,4,4′-trichloro-2′-hydroxydiphenyl ether (IRGASAN® or IRGAGUARD®, Ciba Specialty Chemicals Corp.) either as a neat powder or as a concentrate as prepared in Example 1. The parts of components are by weight.
The extruded pellets are compression molded into 125 mil plaques (2″×2″, 5.08 cm×5.08 cm) at 450° F. (232° C.) for nine minutes (three minutes at low pressure; three minutes at high pressure; three minutes cooling). Yellowness index (YI) values are determined on the plaques according to ASTM D1925 on a DCI SF600 spectrophotometer. An increase in yellowness corresponds to a positive increase in the YI value.

Regarding `Oc1cc(Cl)ccc1Oc1ccc(Cl)cc1Cl` [Powder, 2,4,4′-trichloro-2′-hydroxydiphenyl ether], under “biocide 0.25% by wt”, the “Yellowness Index (YI) after multiple pass extrusion at 500° F. (260° C.) First” value was determined as 8.4, the “Yellowness Index (YI) after multiple pass extrusion at 550° F. (288° C.) First” value is 6.4, the “Yellowness Index (YI) after multiple pass extrusion at 500° F. (260° C.) Second” value is 8.8 and the “Yellowness Index (YI) after multiple pass extrusion at 550° F. (288° C.) Second” value was 6.3. For the same molecule, where the note is “biocide 0.25% by wt”, the “Yellowness Index (YI) after multiple pass extrusion at 500° F. (260° C.) Third” value came to 9.7 and the “Yellowness Index (YI) after multiple pass extrusion at 550° F. (288° C.) Third” value was found to be 6.6. For the setting “biocide 0.50% by wt”, the “Yellowness Index (YI) after multiple pass extrusion at 500° F. (260° C.) First” value came to 8.8, the “Yellowness Index (YI) after multiple pass extrusion at 550° F. (288° C.) First” value was 7.1, the “Yellowness Index (YI) after multiple pass extrusion at 500° F. (260° C.) Second” value was determined as 9.7 and the “Yellowness Index (YI) after multiple pass extrusion at 550° F. (288° C.) Second” value is 7.2. In addition, under “biocide 0.50% by wt”, the “Yellowness Index (YI) after multiple pass extrusion at 500° F. (260° C.) Third” value was found to be 9.2 and the “Yellowness Index (YI) after multiple pass extrusion at 550° F. (288° C.) Third” value worked out at 7.4.

Source of the values: patent publication US7041307B2, “Biocide-polyester concentrates and biocidal compositions prepared therefrom” (Ciba Specialty Chemicals Corporation, priority 1999, dated 2006).
